# Data: patent publication US10925885B2, “Thyromimetics for the treatment of fatty liver diseases” (Metabasis Therapeutics, Inc., priority 2005, dated 2021)
# Entries after “also recorded” stand apart in the source; their conditions may differ.
# Columns and labels:
# [1] = tested on: thyroid-responsive genes in the liver; details: T3-treated vs hypothyroid mice; cited from earlier work
# [2] = Body weight change, chronic exposure in normal rats; assay type: in vivo, rats (Sprague-Dawley); details: 1 mg/kg/day continuous infusion; for Body Weight (% change from start): normal Sprague-Dawley rats, subcutaneous osmotic pump, one week; for Effect on body weight, in words: normal rats
# Protocol: (§1) Methods: Normal rats (Sprague-Dawley) were maintained on a standard diet. Compounds 7, 17, 6, TRIAC or T3 were administered by continuous infusion using an osmotic pump (Alzet; subcutaneous implant) at a dose of 1 mg/kg/day. The compounds were dissolved in 0.1N NaOH solution and the pH adjusted to 7.4-8.0. The compounds were brought up to an appropriate volume using PBS and BSA to maintain solubility within the pump. The compounds were chemically stable in the excipient at 37° C. for 7 days. Body weights were measured and the change from the starting body weight was calculated. The 4.5% reported for the vehicle animals represent a 4.5% increase in body weight over the course of the experiment.
# liver triglycerides [3] = test: Liver triglycerides, chronic exposure in ob/ob mice; assay type: in vivo
# Protocol: (§2) Sections of liver were removed and frozen. Liver triglycerides were analyzed following lipid extraction by the Bligh Dyer method (Bligh and Dyer, Can. J. Med. Sci. 37(8):911-7 (1959), incorporated herein by reference). Total triglycerides were analyzed in the liver extracts by an enzymatic assay (Thermo Electron Corporation). Total lipid was normalized to initial liver weight and triglyceride content was normalized to liver weight mGPDH activity was analyzed in isolated mitochondria using 2-(4-iodophenyl)-3-(4-nitrophenyl)-5-phenyl tetrazolium chloride as the terminal electron acceptor (Gardner R S, Analytical Biochemistry 59:272 (1974)). Commercially available GPDH was used in each assay as a standard (Sigma, St. Louis, Mo.).
# The purpose of these studies was to compare the difference in efficacy to clear liver triglyceride content between Compound cis-13-1 and T3 in ob/ob mice.
# (§3) Methods: ob/ob mice were maintained on a standard diet. Compound cis-13-1 was administered at doses of 3, 10 and 30 mg/kg/d orally in a CMC suspension. T3, 100 nmole/kg/d, was administered as an aqueous solution subcutaneously. Liver triglycerides were analyzed as described in example A. Epididymal fat pads were removed and weighed. Clinical chemistry analysis was performed by LabCorp (San Diego, Calif.).
# liver triglycerides [4] = test: Liver triglycerides, chronic exposure in normal rats; assay type: in vivo, rats (Sprague-Dawley); details: 1 mg/kg/day continuous infusion; for Triglycerides (mg/g liver): normal Sprague-Dawley rats, subcutaneous osmotic pump, one week; for Effect on liver (hepatic) triglyceride content, in words: normal rats, systemic administration
# Text: The purpose of these studies was to compare the difference in efficacy to clear liver triglyceride content between T3 and various T3 mimetics that are carboxylic acids and T3 mimetics that are phosphonic acids. In one example, T3 and Compounds 7 and 17, which differ only in that for Compound 7, the X moiety of Formula II is —P(O)OH2 and for Compound 17, X is —C(O)OH, were compared. In the same example TRIAC and Compound 6, which differ only in that for Compound 6, X is —P(O)OH2 and for TRIAC, X is —C(O)OH, were compared. Efficacy was measured by analyzing total liver triglycerides.
# as §1, §2
# [5] = Epididymal fat pad weight in ob/ob mice; assay type: in vivo
# Protocol: as §3
# hepatic steatosis [6] = test: Hepatic steatosis measured chemically and histologically in ob/ob mice; assay type: in vivo; details: oral administration of cis-13-1
# Protocol: as §3
# mGPDH = test: Liver mGPDH activity in isolated mitochondria, normal rats; assay type: in vivo; details: normal Sprague-Dawley rats, 1 mg/kg/day continuous infusion, subcutaneous osmotic pump
# Protocol: as §1, §2
# hepatic steatosis [7] = test: Liver steatosis (H&E sections) in ZDF rats; assay type: in vivo, Zucker diabetic fatty (ZDF) rats; details: oral, CMC suspension
# Protocol: Methods: ZDF rats were maintained on a standard diet (5008). Compounds cis-13-1 or 18 were administered orally at the indicated doses using a CMC suspension. Liver steatosis was analyzed visually following H&E staining of paraffin embedded liver sections. TSH was measured using a rodent specific kit (Amersham Biosciences). At the end of the experiment, the left ventricle was cannulated with a high fidelity catheter-tip transducer (Millar) via the right carotid artery. Left ventricle pressure, its first derivative (LV dP/dt), lead I ECG, and heart rate triggered off the ECG waveform, were recorded.
# liver TG = details: thyroxine treatment, cited from earlier work
# [8] = T3 100 nmole/kg/d subcutaneously
molecule,measurement,setting,value
"3,3′,5′-triiodothyronine [Compound T3]","Fold, AM2 receptor",[1],0.3 Fold
same,"Fold, Actin, α cardiac",[1],0.3 Fold
same,"Fold, Actin, γ-enteric smooth muscle",[1],0.3 Fold
same,"Fold, Arylsulfatase A",[1],0.3 Fold
same,"Fold, B61",[1],2.3 Fold
same,"Fold, Bcl-3",[1],2.5 Fold
same,"Fold, C11 protein",[1],0.3 Fold
same,"Fold, Capping protein a-subunit",[1],0.3 Fold
same,"Fold, Carbonyl reductase (Cbr1)",[1],3.3 Fold
same,"Fold, Chromodomain-helicase-DNA binding protein CHD-1",[1],0.4 Fold
same,"Fold, Cyp4a-10",[1],0.3 Fold
same,"Fold, Cytoskeletal β-actin",[1],0.3 Fold
same,"Fold, EST",[1],0.4 Fold
same,"Fold, FK506-binding protein (FKBP23)",[1],0.2 Fold
same,"Fold, FK506-binding protein (FKBP65)",[1],0.3 Fold
same,"Fold, Fatty acid transport protein (FATP)",[1],1.8 Fold
same,"Fold, Glucose regulated protein 78",[1],0.3 Fold
same,"Fold, Glucose-6-phosphatase",[1],3.8 Fold
same,"Fold, Glycerophosphate dehydrogenase",[1],0.3 Fold
same,"Fold, H-2 class I histocompatibility antigen",[1],0.3 Fold
same,"Fold, Inhibitory G protein of adenylate cyclase, α chain",[1],0.3 Fold
same,"Fold, Insulin-like growth factor binding protein 1 precursor",[1],3.0 Fold
same,"Fold, Kinesin-like protein (KipIp)",[1],2.0 Fold
same,"Fold, Lamin A",[1],0.3 Fold
same,"Fold, Lupus la protein homolog",[1],0.3 Fold
same,"Fold, Major urinary protein 2 precursor",[1],3.9 Fold
same,"Fold, Membrane-type matrix metalloproteinase",[1],0.2 Fold
same,"Fold, Mitochondrial genome",[1],0.4 Fold
same,"Fold, Murine vik5variant in the kinase",[1],0.1 Fold
same,"Fold, Myosin binding protein H (MyBP-H)",[1],2.2 Fold
same,"Fold, NfiB1-protein (exon 1-12)",[1],0.3 Fold
same,"Fold, Nuclear-encoded mitochondrial acyltransferase",[1],0.2 Fold
same,"Fold, PHAS-II",[1],0.3 Fold
same,"Fold, Protein kinase C inhibitor (mPKCl)",[1],2.1 Fold
same,"Fold, Protein kinase C, Θ type",[1],0.3 Fold
same,"Fold, Protein kinase ζ",[1],0.5 Fold
same,"Fold, Putative ATP-dependent RNA helicase PL10",[1],0.3 Fold
same,"Fold, Putative SH3-containing protein SH3P12",[1],0.3 Fold
same,"Fold, Putative transcription factor of the insulin gene",[1],0.3 Fold
same,"Fold, Rho-associated, coiled-coil forming protein kinase p160",[1],0.2 Fold
same,"Fold, Serine/threonine kinase (Akt2)",[1],0.3 Fold
same,"Fold, Skeletal muscle actin",[1],0.3 Fold
same,"Fold, Spot 14 gene",[1],8.8 Fold
same,"Fold, T-complex protein 1, d subunit",[1],0.3 Fold
same,"Fold, TGN38B",[1],0.3 Fold
same,"Fold, Terminal deoxynucleotidyltransferase",[1],0.3 Fold
same,"Fold, Thymic stromal stimulating factor",[1],0.3 Fold
same,"Fold, Ubiquitin-activating enzyme E1 X",[1],0.3 Fold
same,"Fold, Virus-like (VL30) retrotransposon BVL-1",[1],0.3 Fold
same,"Fold, ece1 (endothelin-converting enzyme)",[1],0.2 Fold
same,"Fold, α-2,3-Sialyltransferase",[1],0.3 Fold
same,"Fold, α-Adaptin",[1],0.3 Fold
same,"Fold, α-Globin",[1],2.7 Fold
same,"Fold, β-2 Adrenergic receptor",[1],3.4 Fold
same,"Fold, β-Galactoside α 2,6-sialyltransferase",[1],0.3 Fold
same,"Fold, β-Globin",[1],2.3 Fold
same,Body Weight (% change from start),[2],−8.2 ± 1.5 % change from start
same,"Effect on body weight, in words",[2]; 1 mg/kg/day,decreased body weight; also recorded: loss of body weight
same,Liver Trigs,liver triglycerides [3]; [8],86 ± 5 mg/g
same,"Effect on liver (hepatic) triglyceride content, in words","liver triglycerides [3]; cis-13-1 oral 3, 10, 30 mg/kg/d, T3 100 nmole/kg/d s.c.",did not significantly decrease liver triglyceride content
same,Triglycerides (mg/g liver),liver triglycerides [4],3.6 ± 0.6 mg/g liver
same,"Effect on liver (hepatic) triglyceride content, in words",liver triglycerides [4]; 1 mg/kg/day,did not demonstrate a decrease in hepatic triglyceride content; also recorded: did not significantly decrease liver triglyceride content
same,EFP weight,[5]; [8],2.0 ± 0.1 g
same,"Effect on epididymal fat pad (EFP) weight, in words","[5]; cis-13-1 oral, T3 100 nmole/kg/d s.c.",significantly decreased EFP weight; also recorded: significantly decreased epididymal fat pad weight
same,"Effect on hepatic steatosis measured chemically and histologically, in words",hepatic steatosis [6],no significant effect on hepatic steatosis
same,Liver mGPDH activity (% vehicle),mGPDH,406 ± 54 % vehicle
O=P(O)(O)Cc1cc(I)c(Oc2ccc(O)c(I)c2)c(I)c1 [Compound 6],Body Weight (% change from start),[2],8.7 ± 0.8 % change from start
same,"Effect on body weight, in words",[2],did not decrease body weight
same,Triglycerides (mg/g liver),liver triglycerides [4],1.3 ± 0.2 mg/g liver
same,"Effect on liver (hepatic) triglyceride content, in words",liver triglycerides [4],significant decrease in hepatic triglyceride content
same,Liver mGPDH activity (% vehicle),mGPDH,291 ± 37 % vehicle
Cc1cc(OCP(=O)(O)O)cc(C)c1Cc1ccc(O)c(C(C)C)c1 [Compound 7],Body Weight (% change from start),[2],9.1 ± 1.5 % change from start
same,"Effect on body weight, in words",[2],did not decrease body weight
same,Triglycerides (mg/g liver),liver triglycerides [4],1.3 ± 0.4 mg/g liver
same,"Effect on liver (hepatic) triglyceride content, in words",liver triglycerides [4],significant decrease in hepatic triglyceride content
same,Liver mGPDH activity (% vehicle),mGPDH,399 ± 40 % vehicle
Cc1cc(OCC(=O)O)cc(C)c1Cc1ccc(O)c(C(C)C)c1 [Compound 17],Body Weight (% change from start),[2],−5.4 ± 1.0 % change from start
same,"Effect on body weight, in words",[2]; 1 mg/kg/day,decreased body weight
same,"Effect on body weight, in words","[2]; listed as compound 17, 1 mg/kg/day",loss of body weight
same,Triglycerides (mg/g liver),liver triglycerides [4],1.8 ± 0.3 mg/g liver
same,"Effect on liver (hepatic) triglyceride content, in words",liver triglycerides [4],significant decrease in hepatic triglyceride content
same,Liver mGPDH activity (% vehicle),mGPDH,426 ± 45 % vehicle
CC(C)c1cc(Oc2c(Cl)cc(CC(=O)O)cc2Cl)ccc1O [Compound 18],"Effect on hepatic steatosis (visual, H&E), in words",hepatic steatosis [7],visually decreased hepatic steatosis compared to control
O=C(O)Cc1cc(I)c(Oc2ccc(O)c(I)c2)c(I)c1 [TRIAC],Body Weight (% change from start),[2],−1.7 ± 0.6 % change from start
same,"Effect on body weight, in words",[2]; 1 mg/kg/day,decreased body weight; also recorded: loss of body weight
same,Triglycerides (mg/g liver),liver triglycerides [4],1.5 ± 0.4 mg/g liver
same,"Effect on liver (hepatic) triglyceride content, in words",liver triglycerides [4],significant decrease in hepatic triglyceride content
same,Liver mGPDH activity (% vehicle),mGPDH,384 ± 28 % vehicle
"N[C@@H](Cc1cc(I)c(Oc2cc(I)c(O)c(I)c2)c(I)c1)C(=O)O [thyroxine, 3,3′,5,5′-tetraiodothyronine]",Decrease of liver TG,liver TG; after one week,5 fold
same,Rebound of liver TG,liver TG; by the end of five weeks,4 fold
